Laboratory results as given in paper PMC10249896, “AI-Assisted chemical probe discovery for the understudied Calcium-Calmodulin Dependent Kinase, PNCK” (PLOS Computational Biology, 2023).
Values joined by “and” are separate entries in the source; they are usually repeats but may differ in a detail not shown here. Identical values can stand only once. Like-named read-outs stand apart in the source and are kept apart here.

Tests used:
[1] = biological target: T1, GST-tagged PNCK recombinant protein (Homo sapiens, UniProt Q6P2M8); test: ADP-Glo Kinase Assay, biochemical PNCK inhibitor screen; details: for inhibition at 10 µM: read-out: Avg. Normalized % Inhibition, 10uM, ADP Kinase Glo
T1 construct: GST; purchased Novus NBP1-99886
Method: ADP-Glo Kinase Assay (V6930, Promega) was used to screen the first round of compounds against PNCK. […] Autocamtide-II (GenScript RP10271) was used as the peptide substrate. This peptide was dissolved in water and prepared immediately prior to the assay. Calcium/Calmodulin 10X (Abcam ab189137) solution was used to create a custom kinase buffer: 40mM Tris,pH 7.5; 20mM MgCl2; 0.1mg/ml BSA; 50μM DTT and Ca2+/Calmodulin solution (0.03μg/μl, Calmodulin, 1mM Tris,pH 7.3, 0.5mM CaCl2). […] A standard curve was then done to determine the amount of protein needed to generate a signal in the linear range of the ATP curve. 100ng of PNCK and 2ng of substrate was used per well in the 96-well plate format of this assay. […] Plates were read using the Clariostar Plus. Data was normalized to a DMSO and staurosporine controls.
(§1) Data analysis of ADP Kinase Glo results were carried out per the manufacturer’s instructions. Results were represented as a percent decrease in activity. Data was normalized to staurosporine (positive control) as 100% decrease and DMSO (negative control) as a 0% decrease. Data for NanoBRET was analyzed by dividing the acceptor by the donor emission and […] to obtain raw millibret units (mBU). Background was subtracted using control emission averages. Data was normalized to positive and negative controls of staurosporine and DMSO. Concentration-response curves were plotted in GraphPad Prism 8 and IC50s were extrapolated using non-linear fit with concentrations transformed to logarithmic scale. Baseline was held constant and represented the average mBU of staurosporine controls while the top was constrained to represent the average mBU of DMSO controls. Error bars on dose-response curves represent standard deviations.

[2] = biological target: T2, PNCK Nano-luciferase fusion (Homo sapiens, UniProt Q6P2M8); test: NanoBRET Target Engagement Intracellular Kinase Assay, cell-based PNCK binding screen and dose response in HEK293 cells; details: for NanoBRET binding, result in words: cell-based screen / comparison with parent hit; for IC50: 8-point concentration-response; for dose response raw signal: replicate values
T2 construct: host or cells: HEK293
Method: The NanoBRET Target Engagement Intracellular Kinase Assay (Promega N2520) is a cell-based binding screen which reads loss of BRET signal as a result of target binding. A PNCK Nano-luciferase fusion vector plasmid was generated custom by Promega. The K-10 tracer was used for the assay, as determined by Promega. The plasmid was maxiprepped by Genewiz for use in all future assays. HEK293 cells were seeded in a T175 flask in DMEM with 10% FBS. The following day, cells were counted to 10,000, resuspended in assay media (Optimem with no phenol red, 1% FBS). Plasmid and transfection reagent (Fugene HD, Promega E2311) were added to the mixture and cells were seeded in a white 96-well plate. After 20–24 hours, media was changed, and the assay proceeded according to protocol. K10 tracer was added at the recommended concentration of 1uM while compounds were initially screened at both 10uM and 1uM. Cells incubated with compound at 37 degrees Celsius for a maximum of 2 hours before the plate was read using Clariostar Plus. Data was normalized to Staurosporine and DMSO controls. For compounds selected for further analysis, dose response curves were generated using the same testing protocol but at 8 different concentrations: 24uM, 12uM, 6uM, 3uM, 1.5uM, .75uM 0.375uM and 0.1875uM. UM195 was tested with concentrations from 12uM to 0.09375. Similarly, compounds from the analog by catalog analysis were tested at concentrations from 24uM to 0.1875uM.
as §1

[3] = Aqueous solubility observed on testing; format: physicochemical; details: stated on testing
[4] = biological target: T2, PNCK Nano-luciferase fusion; test: NanoBRET Target Engagement Intracellular Kinase Assay, cell-based PNCK binding screen and dose response in HEK293 cells
[5] = compound 10uM, 25uM ATP, normalized to DMSO and staurosporine controls
[6] = compound 1uM, HEK293, K10 tracer 1uM, normalized to staurosporine and DMSO, read-out: Avg. Normalized % Inhibition, 1uM, Nanobret
[7] = compound 10uM, HEK293, K10 tracer 1uM, normalized to staurosporine and DMSO, read-out: Avg. Normalized % Inhibition, 10uM, Nanobret

T2 sequence (Q6P2M8 whole entry, the tested form may be a part): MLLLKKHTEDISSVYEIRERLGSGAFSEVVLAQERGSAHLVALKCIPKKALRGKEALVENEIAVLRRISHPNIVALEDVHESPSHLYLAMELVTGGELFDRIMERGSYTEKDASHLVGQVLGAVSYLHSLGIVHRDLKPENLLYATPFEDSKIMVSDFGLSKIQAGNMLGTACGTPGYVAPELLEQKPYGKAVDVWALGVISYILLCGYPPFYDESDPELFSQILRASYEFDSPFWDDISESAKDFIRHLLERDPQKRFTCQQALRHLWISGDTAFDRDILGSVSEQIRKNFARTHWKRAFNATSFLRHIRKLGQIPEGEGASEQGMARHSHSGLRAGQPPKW

## O=C1NC(=O)C(=Cc2ccc(Sc3nc4ccccc4[nH]3)o2)C(=O)N1 [UM_036]
[1]
  inhibition at 10 µM: 39.2%
[2]; HEK293, read-out: Avg. Normalized % Inhibition, 1uM, Nanobret
  inhibition at 1 µM: 2.83%
[2]; HEK293, read-out: Avg. Normalized % Inhibition, 10uM, Nanobret
  inhibition at 10 µM: 16.8%

## O=c1[nH]c2ccccc2n1CCCSc1nnc2c(n1)[nH]c1ccccc12 [UM_037, 1-(3-5H-[1,2, 4]triazino [5,6-b]indol-3-ylsulfanylpropyl)-2,3-dihydro-1H-1,3-benzodiazol-2-one]
[1]; [5]
  Avg. Normalized % Inhibition, 10uM, ADP Kinase Glo: minimal inhibitory activity
[2]; Concentration 1.20E-05 M, listed as UM37
  Dose-Response Curve Data (NanoBRET signal, replicates): 6.25 and 6.50 and 6.41
[2]; Concentration 1.50E-06 M, listed as UM37
  Dose-Response Curve Data (NanoBRET signal, replicates): 7.94 and 8.66 and 7.96
[2]; Concentration 1.88E-07 M, listed as UM37
  Dose-Response Curve Data (NanoBRET signal, replicates): 8.18 and 8.37 and 8.94
[2]; Concentration 2.40E-05 M, listed as UM37
  Dose-Response Curve Data (NanoBRET signal, replicates): 4.85 and 4.94 and 5.59
[2]; Concentration 3.00E-06 M, listed as UM37
  Dose-Response Curve Data (NanoBRET signal, replicates): 8.21 (2×) and 8.11
[2]; Concentration 3.75E-07 M, listed as UM37
  Dose-Response Curve Data (NanoBRET signal, replicates): 8.11 and 8.67 and 8.63
[2]; Concentration 6.00E-06 M, listed as UM37
  Dose-Response Curve Data (NanoBRET signal, replicates): 7.28 and 7.38 and 7.80
[2]; Concentration 7.50E-07 M, listed as UM37
  Dose-Response Curve Data (NanoBRET signal, replicates): 8.16 and 8.66 and 8.74

## COc1ccc(Cl)c(S(=O)(=O)Nc2ccc(OCC(=O)O)cc2)c1 [UM_038]
[1]; [5]
  Avg. Normalized % Inhibition, 10uM, ADP Kinase Glo: 68.8%
  inhibition at 10 µM: > 50%
[2]; [6]
  inhibition at 1 µM: 0%
[2]; [7]
  inhibition at 10 µM: 18.9%

## O=C(O)Cc1cc(C2CCN(C(=O)Cc3n[nH]c4ccccc34)CC2)[nH]n1 [UM_039]
[1]; [5]
  Avg. Normalized % Inhibition, 10uM, ADP Kinase Glo: 91% and 91.1687%
[2]
  NanoBRET binding, result in words: negligible activity
[2]; [6]
  inhibition at 1 µM: 2.17%
[2]; [7]
  inhibition at 10 µM: 6.89%

## Oc1c(/C=N/c2ccc(Br)cn2)sc2ccccc12 [UM_234]
[2]; [6]
  inhibition at 1 µM: 5.92%
[2]; [7]
  inhibition at 10 µM: 17.1%
[3]
  aqueous solubility: poor aqueous solubility

## Cc1ccc(C)c(OCc2nc(-c3cccnn3)no2)c1C [UM_245]
[3]
  aqueous solubility: poor aqueous solubility

## CC1CCc2c(sc(NC(=O)CSc3ncc(-c4ccc(F)cc4)[nH]3)c2C(N)=O)C1 (centres unmarked) [UM_252]
[2]; HEK293
  IC50: 1090 nM
[2]; Concentration 1.25E-06 M
  Dose-Response Curve Data (NanoBRET signal, replicates): 5.69 and 4.76 and 5.57 and 5.29 and 6.48
[2]; Concentration 2.00E-05 M
  Dose-Response Curve Data (NanoBRET signal, replicates): 4.90 and 5.31 and 5.12 and 5.26 and 5.44
[2]; Concentration 2.50E-06 M
  Dose-Response Curve Data (NanoBRET signal, replicates): 5.05 and 5.03 and 4.81 and 5.42 and 6.45
[2]; Concentration 5.00E-06 M
  Dose-Response Curve Data (NanoBRET signal, replicates): 4.80 and 4.70 and 5.14 and 6.28 and 5.58
[2]; Concentration 6.25E-07 M
  Dose-Response Curve Data (NanoBRET signal, replicates): 5.77 and 5.39 and 5.91 and 7.06 and 6.32
[2]
  NanoBRET binding, result in words: improving from the IC50 of UM_228 by one order of magnitude
[2]; [6]
  inhibition at 1 µM: 49.9%
[2]; [7]
  inhibition at 10 µM: 79.1%
[4]; Concentration 1.00E-05 M
  Dose-Response Curve Data (NanoBRET signal, replicates): 5.51 and 5.44 and 5.21 and 5.32 and 4.78
[4]; Concentration 1.56E-07 M
  Dose-Response Curve Data (NanoBRET signal, replicates): 6.58 and 6.82 and 6.54 and 7.24 and 6.53
[4]; Concentration 3.13E-07 M
  Dose-Response Curve Data (NanoBRET signal, replicates): 6.79 and 6.18 and 7.47 and 6.16 and 7.19

## COC(=O)c1cnc(Sc2nnc(-c3cccc4ccccc34)o2)cn1 [UM_254]
[2]; HEK293
  IC50: 2680 nM
[2]; Concentration 1.25E-06 M
  Dose-Response Curve Data (NanoBRET signal, replicates): 7.15 and 8.63 and 7.69 and 7.36
[2]; Concentration 2.00E-05 M
  Dose-Response Curve Data (NanoBRET signal, replicates): 4.80 and 4.63 and 5.32 and 4.99
[2]; Concentration 2.50E-06 M
  Dose-Response Curve Data (NanoBRET signal, replicates): 7.32 and 7.44 and 7.90 and 7.31
[2]; Concentration 5.00E-06 M
  Dose-Response Curve Data (NanoBRET signal, replicates): 6.60 and 7.13 and 7.18 and 7.54
[2]; Concentration 6.25E-07 M
  Dose-Response Curve Data (NanoBRET signal, replicates): 7.54 and 7.48 and 8.39 and 8.00
[2]; [6]
  inhibition at 1 µM: 16.1%
[2]; [7]
  inhibition at 10 µM: 68.2%
[4]; Concentration 1.00E-05 M
  Dose-Response Curve Data (NanoBRET signal, replicates): 5.13 and 5.39 and 6.19 and 4.97
[4]; Concentration 1.56E-07 M
  Dose-Response Curve Data (NanoBRET signal, replicates): 8.00 and 8.01 and 8.11 and 8.38
[4]; Concentration 3.13E-07 M
  Dose-Response Curve Data (NanoBRET signal, replicates): 8.00 and 8.43 and 7.99 and 7.89

## O=C1CN(C(=O)COc2ccc3c4c(c(=O)oc3c2)CCCCC4)CCN1 [UM_259]
[2]; HEK293
  IC50: 2900 nM
[2]; Concentration (M) 1.00E-05
  dose response raw signal: 4.13 and 4.39 and 5.19 and 4.12
[2]; Concentration (M) 1.25E-06
  dose response raw signal: 5.91 and 7.63 and 6.69 and 6.36
[2]; Concentration (M) 1.56E-07
  dose response raw signal: 7.98 and 8.01 and 8.32 and 8.22
[2]; Concentration (M) 2.50E-06
  dose response raw signal: 4.91 and 6.63 and 5.69 and 5.36
[2]; Concentration (M) 3.13E-07
  dose response raw signal: 8.79 and 8.75 and 7.57 and 7.89
[2]; Concentration (M) 5.00E-06
  dose response raw signal: 4.98 and 5.24 and 5.45 and 6.11
[2]; Concentration (M) 6.25E-07
  dose response raw signal: 8.89 and 8.75 and 7.37 and 7.79
[2]
  NanoBRET binding, result in words: higher affinity for PNCK than the parent
[2]; [6]
  inhibition at 1 µM: 27.5%
[2]; [7]
  inhibition at 10 µM: 84.1%
[4]; Concentration (M) 2.00E-05, replicate values
  dose response raw signal: 4.80 and 4.22 and 5.32 and 4.30
